Assay results taken from publication PMC5896266, “Development of Matrix Metalloproteinase-2 Inhibitors for Cardioprotection” (Frontiers in Pharmacology, 2018).
Like-named read-outs stand apart in the source and are kept apart here.

Tests used:
MMP-2 = conditions: Figure 1, known MMP-2 inhibitors; cited from earlier work
MMP-1 [1] = target: T1, MMP-1 (Homo sapiens, UniProt P03956); conditions: Figure 1, known MMP-2 inhibitors; cited from earlier work
T1 sequence (P03956 100-469): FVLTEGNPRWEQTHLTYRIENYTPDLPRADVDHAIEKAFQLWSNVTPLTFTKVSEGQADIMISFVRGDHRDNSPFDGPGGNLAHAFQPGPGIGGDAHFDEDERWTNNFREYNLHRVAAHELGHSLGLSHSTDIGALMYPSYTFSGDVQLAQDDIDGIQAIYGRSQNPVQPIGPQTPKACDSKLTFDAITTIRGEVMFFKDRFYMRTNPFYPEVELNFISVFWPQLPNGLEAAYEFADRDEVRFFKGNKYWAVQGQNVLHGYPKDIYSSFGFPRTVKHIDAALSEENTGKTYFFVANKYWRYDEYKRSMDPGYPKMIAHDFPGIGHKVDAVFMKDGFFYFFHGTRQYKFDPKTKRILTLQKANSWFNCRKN

[2] = target: T2, Human MMP-2 catalytic domain (Homo sapiens, UniProt P08253, DEL222-396); test: Fluorometric MMP-2 inhibition assay (MTS), catalytic domain; format: biochemical
T2 construct: Human MMP-2 catalytic domain (residues 110-221, 397-455); made in house
Procedure: In vitro MMP-2 activity was then measured, using a fluorometric assay in a 384 well format. Human MMP-2 catalytic domain (residues 110-221, 397-455) (Feng et al., [2000]) was expressed in E. coli in form of inclusion bodies. The protein was refolded and then purified by means of Ni-NTA affinity and anion exchange chromatography. Inhibition assays were carried out in 50 mM Tris, 5 mM CaCl2, 300 mM NaCl, 20 μM ZnSO4, pH = 7.5 buffer. For inhibition studies the catalytic domain of the enzyme was pre-incubated with varying amount of inhibitor for 30 min. […] After 1 h incubation at 37°C the fluorescence was detected using a Wallac 1420 Victor2 microplate reader at 320 nm/405 nm Ex/Em wavelength. As an alternative substrate we also used 5-FAM-Pro-Leu-Gly-Leu-Dap(QXL™ 520)-Ala-Arg-NH2, where the fluorescence was detected at 485 nm/520 nm. For each inhibitor candidate, the percentage of inhibition was determined in duplicate experiments at six inhibitor concentrations, chosen to observe a 5–95% range of inhibition.
Since hydroxamic acids are reported as the primary zinc-binding motif, we intended to select such a library from the AMRI 200,000 member non-exclusive compound repository as a starting point of our drug discovery efforts. Since only a few compounds were available in the repository as hydroxamic acids and the conversion of acids to hydroxamic acids were not applicable to HT parallel synthesis, we decided first to select free acids from the AMRI's compound collection. […] The selected acids were screened in a fluorescent assay using a recombinant human MMP-2 catalytic fragment and a synthetic peptide substrate. […] The hydroxamic acid pairs of the previously measured acids were then tested.

[3] = target: T3, MMP-2 enzyme isolated from rat heart (Rattus norvegicus, UniProt P33436); test: Gelatin zymography on cardiac MMP-2; format: biochemical; conditions: for inhibition at 100 µM: cardiac MMP-2, gelatin zymography, read-out: Inhibition (%)±SEM at 100 μM final MMP inhibitor concentration; for EC50: concentration labelled EC50 in Supplementary Figure 4, doses calculated according to IC doses in vitro
T3 construct: we used full-length, active MMP-2 enzymes isolated from healthy young adult rat hearts; from tissue; host or cells: rat heart homogenate (healthy young adult rats)
T3 sequence (P33436 110-662): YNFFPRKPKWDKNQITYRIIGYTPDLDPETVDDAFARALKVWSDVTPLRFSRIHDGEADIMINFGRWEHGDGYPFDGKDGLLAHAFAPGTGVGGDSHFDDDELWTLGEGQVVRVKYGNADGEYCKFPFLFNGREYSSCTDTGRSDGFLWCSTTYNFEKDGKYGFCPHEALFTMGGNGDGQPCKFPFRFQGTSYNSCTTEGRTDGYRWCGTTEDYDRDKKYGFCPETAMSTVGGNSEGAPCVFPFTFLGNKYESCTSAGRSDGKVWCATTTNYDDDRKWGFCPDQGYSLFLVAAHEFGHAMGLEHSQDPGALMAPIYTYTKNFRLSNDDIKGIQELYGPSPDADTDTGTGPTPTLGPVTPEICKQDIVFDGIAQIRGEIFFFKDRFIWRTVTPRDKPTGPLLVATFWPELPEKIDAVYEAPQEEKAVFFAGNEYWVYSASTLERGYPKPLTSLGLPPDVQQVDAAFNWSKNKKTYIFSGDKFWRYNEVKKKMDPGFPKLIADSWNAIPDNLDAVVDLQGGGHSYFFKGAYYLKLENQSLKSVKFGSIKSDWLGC
Procedure: Gelatin zymography was performed as described previously (Kupai et al., [2010]; Bencsik et al., [2017]). MMP-2 was isolated from rat heart homogenates as follows: 50 μg protein/lane were loaded and separated by electrophoresis under non-reducing conditions on an 8% SDS-polyacrylamide gels copolymerized with 2 mg/ml gelatin from porcine skin (Sigma-Aldrich; St. Louis, MO). After electrophoresis, gels were washed in 2.5% Triton-X 100 with gentle agitation and then incubated for 20 h at 37°C in zymography development buffer (50 mM Tris-HCl, pH 7.5, containing 5 mM CaCl2, 200 mM NaCl) in the presence or abscence of the MMP inhibitor compounds. Zymographic gels were stained in a 0.05% Coomassie Brilliant Blue R-250 solution followed by destaining, and then zymograms were scanned. MMP activity was detected as a colorless transparent zone on a blue background and the clear bands in the gel were quantified by densitometry using the Quantity One software (Bio-Rad, Hercules, CA). The obtained density values were measured and percentage of inhibition values were then calculated.
To confirm the MTS screen results, we tested the potential MMP inhibitor molecules on MMP-2 enzyme isolated from rat heart in vitro. Therefore, we applied the MMPIs at 1 and 100 μM final concentration in the enzyme's development buffer (Table 3).
After the chemical optimization of the novel MMP inhibitor lead candidates, we determined their IC50 values by using gelatin zymography. During zymographic analysis, we used full-length, active MMP-2 enzymes isolated from healthy young adult rat hearts. Subsequently, the cardio-cytoprotective effects of the selected candidates having the lowest IC50 values to MMP-2 were tested in cultured neonatal cardiac myocytes subjected to simulated I/R injury. Cardiac myocyte cell culture assay allowed a relatively high throughput biological efficacy testing (Gorbe et al., [2010]) of the selected lead candidates in several dose ranges at different levels of inhibition of MMP-2 activity.

MMP-13 = MMP-13 (Homo sapiens, UniProt P45452); test: MMP-13 inhibition (inhibitory profile); format: biochemical; conditions: Table 2
Procedure: (§1) The compounds were measured for MMP-1, 2, 9, 13 to determine their inhibitory profile. Efficiency Index amplifies the two major required effects, selectivity against MMP-1 and the inhibitory activity.

MMP-1 [4] = target: T1, MMP-1; test: MMP-1 inhibition (inhibitory profile); format: biochemical; conditions: Table 2
Procedure: as §1

MMP-9 = MMP-9 (Homo sapiens, UniProt P14780); test: MMP-9 inhibition (inhibitory profile); format: biochemical; conditions: Table 2
Procedure: as §1

[5] = Table 1, acids vs hydroxamic acids, catalytic fragment

MMP-9, sequence (P14780 94-707, species assumed): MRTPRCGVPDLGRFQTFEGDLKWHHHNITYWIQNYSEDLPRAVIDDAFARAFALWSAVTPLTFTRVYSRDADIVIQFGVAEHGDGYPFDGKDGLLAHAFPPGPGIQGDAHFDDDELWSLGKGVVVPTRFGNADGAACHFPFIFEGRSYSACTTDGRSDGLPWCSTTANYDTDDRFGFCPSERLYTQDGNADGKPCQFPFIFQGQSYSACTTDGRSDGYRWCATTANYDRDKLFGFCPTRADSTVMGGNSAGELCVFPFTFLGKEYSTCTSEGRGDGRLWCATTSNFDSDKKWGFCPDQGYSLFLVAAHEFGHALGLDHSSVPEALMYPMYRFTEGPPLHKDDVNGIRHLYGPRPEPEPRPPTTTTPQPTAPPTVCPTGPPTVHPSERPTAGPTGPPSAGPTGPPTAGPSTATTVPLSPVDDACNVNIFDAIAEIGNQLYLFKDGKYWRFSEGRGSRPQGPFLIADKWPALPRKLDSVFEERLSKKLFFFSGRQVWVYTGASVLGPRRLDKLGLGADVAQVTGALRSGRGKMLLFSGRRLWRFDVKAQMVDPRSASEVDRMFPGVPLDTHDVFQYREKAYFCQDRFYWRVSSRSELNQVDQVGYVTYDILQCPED
T2 sequence (P08253 with tags, fused parts or gaps DEL222-396 limits assumed): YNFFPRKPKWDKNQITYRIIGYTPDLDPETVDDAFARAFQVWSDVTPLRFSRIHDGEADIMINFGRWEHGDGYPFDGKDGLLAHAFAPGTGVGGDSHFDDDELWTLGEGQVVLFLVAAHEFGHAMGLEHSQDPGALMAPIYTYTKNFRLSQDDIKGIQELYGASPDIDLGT

Structure (SMILES) | IC50 (MMP-2) | IC50 (MMP-1 [1]) | IC50 [2, 5] | IC50 ([2]; Table 2) | inhibition at 100 µM [3] | IC50 (MMP-13) | IC50 (MMP-1 [4]) | IC50 (MMP-9) | EC50 [3]
CC1(C)OCC(C(CS(=O)(=O)c2ccc(Oc3ccc(OC(F)(F)F)cc3)cc2)N(O)C=O)O1 (stereo not drawn) [ABT-518] | 0.0008 µM | 8.9 µM | – | – | – | – | – | – | –
O=C(NO)c1csc(CN(Cc2ccc(F)cc2)Cc2ccc(OCc3ccccc3)cc2)n1 [AMRI-101H] | – | – | 12 µM | – | – | – | – | – | –
O=C(O)c1csc(CN(Cc2cccc(Cl)c2)Cc2cccc(C(F)(F)F)c2)n1 [AMRI-102A] | – | – | 6.2 µM | – | – | – | – | – | –
O=C(NO)c1csc(CN(Cc2cccc(Cl)c2)Cc2cccc(C(F)(F)F)c2)n1 [AMRI-102H] | – | – | 11 µM | – | – | – | – | – | –
O=C(O)c1csc(CN(CCC(c2ccccc2)c2ccccc2)Cc2ccccc2F)n1 [AMRI-103A] | – | – | 7.6 µM | – | – | – | – | – | –
O=C(NO)c1csc(CN(CCC(c2ccccc2)c2ccccc2)Cc2ccccc2F)n1 [AMRI-103H] | – | – | 17.6 µM | – | – | – | – | – | –
O=C(O)c1csc(CN(Cc2ccc(OCc3ccccc3)cc2)Cc2cccc(F)c2)n1 [MMPI-1133] | – | – | – | 25 µM | 11.1 ± 1.58% | 4.7 µM | 6.8 µM | – | –
O=C(O)C(c1ccccc1)N(Cc1ccc(OCc2ccccc2)cc1)Cc1cccc(F)c1 (stereo not drawn) [MMPI-1140] | – | – | – | 20 µM | 81.1 ± 3.88% | 2.6 µM | 12 µM | 39 µM | –
O=C(O)c1csc(CN(Cc2ccc(OCc3ccccc3)cc2)C(c2ccccc2)c2ccccc2)n1 [MMPI-1155] | – | – | – | 25 µM | 47 ± 19.1% | 1.76 µM | 26 µM | 10 µM | –
O=C(O)c1csc(CN(Cc2ccc(F)cc2)Cc2ccc(OCc3ccccc3)cc2)n1 [MMPI-1157] | – | – | 3.4 µM | – | 100% | 1.6 µM | – | 15 µM | 18 µM
O=C(O)c1c[nH]c(CN(Cc2ccc(F)cc2)Cc2ccc(OC(c3ccccc3)c3ccccc3)cc2)n1 [MMPI-1245] | – | – | – | 35 µM | 100% | 0.28 µM | 16 µM | 8 µM | –
Cc1ccc(CN(Cc2ccc(OCc3ccccc3)cc2)Cc2nc(C(=O)O)c[nH]2)cc1 [MMPI-1247] | – | – | – | 15 µM | 100% | 3.3 µM | 33 µM | 100 µM | 16 µM
O=C(O)c1csc(CN(Cc2ccc(F)cc2)Cc2ccc(OCc3ccncc3)cc2)n1 [MMPI-1248] | – | – | – | 8 µM | 100% | 1.24 µM | 47 µM | 8.8 µM | 9 µM
O=C(O)c1csc(CN(Cc2ccncc2)Cc2ccc(OCc3ccccc3)cc2)n1 [MMPI-1252] | – | – | – | 54 µM | 100% | 1.5 µM | 115 µM | ≥ 500 µM | –
O=C(O)c1csc(CN(Cc2ccc(OCc3ccccc3)cc2)Cc2cccnc2)n1 [MMPI-1253] | – | – | – | 90 µM | 100% | 8 µM | 240 µM | ≥ 500 µM | –
O=C(O)c1csc(CN(Cc2ccc(F)cc2)Cc2ccc(-c3ccccc3)cc2)n1 [MMPI-1254] | – | – | – | 30 µM | 100% | 3 µM | 17 µM | 20 µM | 32 µM
O=C(O)c1csc(CN(Cc2ccc(F)cc2)Cc2ccc(OCc3cccnc3)cc2)n1 [MMPI-1260] | – | – | – | 5.7 µM | 100% | 2.5 µM | 51 µM | 37 µM | 17.7 µM
